Test results as given in patent US12350306B2, “Modifying taste and sensory irritation of smokeless tobacco and non-tobacco products” (Altria Client Services LLC, priority 2013, dated 2025).

Key:
[1] = Perceived bitterness of caffeinated water formulations; assay type: in vivo; conditions: caffeinated water formulation
Experimental: Liquid formulations were prepared by combining caffeinated water or commercially available grapefruit juice with Cremophor® alone, citric acid alone or the combination of Cremophor® and citric acid. […] Because grapefruit juice naturally contains citric acid, citric acid was not added to the grapefruit juice formulations.

[2] = experimental animal models; cited from earlier work
TRPV1 channel = TRPV1 channel (Homo sapiens, UniProt Q8NER1); conditions: cited from earlier work
Sequence of TRPV1 channel (Q8NER1 whole entry): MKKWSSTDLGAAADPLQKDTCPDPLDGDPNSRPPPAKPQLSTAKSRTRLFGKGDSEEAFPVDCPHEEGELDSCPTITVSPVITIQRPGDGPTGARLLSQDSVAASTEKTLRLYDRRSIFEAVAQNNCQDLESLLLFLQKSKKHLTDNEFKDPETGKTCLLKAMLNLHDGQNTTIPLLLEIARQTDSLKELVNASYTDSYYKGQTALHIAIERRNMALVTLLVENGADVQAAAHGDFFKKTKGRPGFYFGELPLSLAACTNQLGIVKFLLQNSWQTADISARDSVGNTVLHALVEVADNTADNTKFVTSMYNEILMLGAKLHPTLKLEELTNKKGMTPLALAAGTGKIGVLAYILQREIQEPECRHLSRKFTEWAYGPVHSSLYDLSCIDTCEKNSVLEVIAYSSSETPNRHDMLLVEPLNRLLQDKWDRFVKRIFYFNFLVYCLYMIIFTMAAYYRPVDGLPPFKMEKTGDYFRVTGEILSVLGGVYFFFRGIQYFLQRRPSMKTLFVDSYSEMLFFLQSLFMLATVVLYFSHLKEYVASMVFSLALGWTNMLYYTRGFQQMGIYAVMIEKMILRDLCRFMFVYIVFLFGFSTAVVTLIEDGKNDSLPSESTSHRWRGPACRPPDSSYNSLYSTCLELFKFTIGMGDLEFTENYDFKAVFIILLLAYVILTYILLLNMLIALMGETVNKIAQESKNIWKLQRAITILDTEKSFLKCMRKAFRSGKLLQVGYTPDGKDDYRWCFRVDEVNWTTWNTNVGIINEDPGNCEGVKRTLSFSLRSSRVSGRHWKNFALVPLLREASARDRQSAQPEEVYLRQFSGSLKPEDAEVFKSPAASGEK

Compound	perceived bitterness [1]	anti-inflammatory effects [2]	TRPV1 channel desensitization (TRPV1 channel)
O=C(O)CC(O)(CC(=O)O)C(=O)O [citric acid]	little noticeable effect		
CCCCCC[C@@H](O)C/C=C/CCCCCCCC(=O)O (stereo in doubt) [Ricinoleic acid, 12-hydroxy-9-cis-octadecenoic acid]		anti-inflammatory effects	can desensitize the TRPV1 channel
